Assays:
Format in all cases: cell-based
[1] = test system: MEC1 B-chronic lymphocytic leukemia cells; assay: PBMC cytotoxicity assay against MEC1 cells (flow cytometry)
Method: (§1) In the present study, we examined these desmuramylpeptides in terms of potentiation of the cytotoxic activity of the PBMCs against cancer cells. To this end, we used a previously described flow-cytometry-based cytotoxicity assay where PBMCs are co-incubated with fluorescently labeled cancer cells.[89] As indicated above, the NOD2-mediated NK cell activity originates from both the direct effects of NOD2 agonists on NK cells and the indirect activation through cytokine release by other NOD2-responsive cells, including monocytes. Thus, we used the whole PBMC population as the effector cells, rather than isolated NK cells, to provide conditions that would be closer to the in vivo environment, wherein the immune responses can be reinforced by interactions between the distinct immune cell subpopulations. Two malignant cell lines were used as the target cells in a 40:1 effector to target cell ratio: MEC1 B-chronic lymphocytic leukemia cells, and K562 chronic myelogenous leukemia cells. The K562 cells are considered a “classic” NK cell target, as they lack the expression of major histocompatibility complex (MHC) class I that is required for NK cell inhibition.[90]
The PBMC cytotoxicity assays using K562 and MEC1 cells were performed as described previously, with some modifications.[89] PBMCs were seeded (4 × 10^5 cells/well) in 96-well plates and treated with compounds (0.1–10 μM) or vehicle (0.1% DMSO) for 18 h. The K562 or MEC1 cells were stained with CFSE (Invitrogen, Carlsbad, CA, U.S.A.), washed twice with complete medium, and added (1 × 10^4 cells/well) to pretreated PBMCs for a final effector cell to target tumor cell ratio of 40:1. After a 4 h co-incubation (37 °C, 5% CO2), cells were stained with Sytox blue dead cell stain (Invitrogen) and analyzed using an Attune NxT flow cytometer (Thermo Fisher Scientific, Waltham, MA, U.S.A.) and the FlowJo software (Tree Star, Inc., Ashland, OR, U.S.A.). […] Statistical significance was determined by one-way ANOVA followed with Dunnett’s multiple comparisons test.

[2] = test system: K562 chronic myelogenous leukemia cells; assay: PBMC cytotoxicity assay against K562 cells (flow cytometry)
Method: as §1
The PBMC cytotoxicity assays using K562 and MEC1 cells were performed as described previously, with some modifications.[89] PBMCs were seeded (4 × 10^5 cells/well) in 96-well plates and treated with compounds (0.1–10 μM) or vehicle (0.1% DMSO) for 18 h. The K562 or MEC1 cells were stained with CFSE (Invitrogen, Carlsbad, CA, U.S.A.), washed twice with complete medium, and added (1 × 10^4 cells/well) to pretreated PBMCs for a final effector cell to target tumor cell ratio of 40:1. After a 4 h co-incubation (37 °C, 5% CO2), cells were stained with Sytox blue dead cell stain (Invitrogen) and analyzed using an Attune NxT flow cytometer (Thermo Fisher Scientific, Waltham, MA, U.S.A.) and the FlowJo software (Tree Star, Inc., Ashland, OR, U.S.A.). Cells that were positive for both CFSE and Sytox blue were defined as dead K562 and MEC1 cells. PBMCs alone and the CFSE-labeled cancer cells alone were also treated with the compounds at the same concentrations and stained with Sytox blue to determine any direct cytotoxicity of the compounds toward the PBMCs and cancer cells. The experiments were run in duplicate and repeated as three independent biological replicates. Statistical significance was determined by one-way ANOVA followed with Dunnett’s multiple comparisons test.

NOD2 = target: T1, NOD2 (Homo sapiens, UniProt Q9HC29); assay: HEK-Blue NOD2 cell line reporter assay (NF-κB-inducible SEAP); conditions: for EC50 / NOD2 activity at 2 μM (fold increase): HEK-Blue NOD2 cells; for NOD2 activity at 2 μM (fold increase): NF-κB transcriptional (SEAP) activity relative to 0.1% DMSO
T1 construct: host or cells: HEK-Blue NOD2 cells (HEK293-derived)
T1 sequence (Q9HC29 whole entry): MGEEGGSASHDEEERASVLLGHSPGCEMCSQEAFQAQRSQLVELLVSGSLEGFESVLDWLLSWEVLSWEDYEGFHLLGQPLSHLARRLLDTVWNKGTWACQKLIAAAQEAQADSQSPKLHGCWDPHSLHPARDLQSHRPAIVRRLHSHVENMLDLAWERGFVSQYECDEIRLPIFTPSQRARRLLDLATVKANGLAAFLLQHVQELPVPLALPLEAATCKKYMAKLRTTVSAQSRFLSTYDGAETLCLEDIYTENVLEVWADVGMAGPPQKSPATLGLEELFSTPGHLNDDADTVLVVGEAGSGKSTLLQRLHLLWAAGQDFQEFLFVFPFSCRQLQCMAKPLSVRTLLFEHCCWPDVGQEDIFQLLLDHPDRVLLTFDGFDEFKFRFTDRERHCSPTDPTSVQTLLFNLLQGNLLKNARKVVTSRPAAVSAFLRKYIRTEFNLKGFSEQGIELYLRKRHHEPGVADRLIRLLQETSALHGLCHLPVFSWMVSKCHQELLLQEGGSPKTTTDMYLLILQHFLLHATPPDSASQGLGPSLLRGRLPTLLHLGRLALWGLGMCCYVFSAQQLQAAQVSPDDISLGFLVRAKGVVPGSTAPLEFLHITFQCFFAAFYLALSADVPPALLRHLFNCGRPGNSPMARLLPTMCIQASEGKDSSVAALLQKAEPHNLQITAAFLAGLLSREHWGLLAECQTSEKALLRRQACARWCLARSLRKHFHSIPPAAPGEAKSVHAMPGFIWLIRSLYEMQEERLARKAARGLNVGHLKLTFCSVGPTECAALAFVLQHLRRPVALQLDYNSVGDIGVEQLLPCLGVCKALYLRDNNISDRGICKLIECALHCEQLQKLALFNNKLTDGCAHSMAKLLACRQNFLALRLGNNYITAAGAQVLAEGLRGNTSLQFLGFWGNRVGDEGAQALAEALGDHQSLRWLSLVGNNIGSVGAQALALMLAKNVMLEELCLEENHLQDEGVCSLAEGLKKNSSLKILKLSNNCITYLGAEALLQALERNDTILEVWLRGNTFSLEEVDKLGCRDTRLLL

[3] = 10 μM, 18 h pretreatment, 4 h co-incubation, 40:1
[4] = 18 h, 7 or 8 concentrations 1 nM to 20 μM, mean ± SEM

SMILES | Boost to the cytotoxicity of PBMCs against MEC1 cells ([1]; 100 nM) | Boost to the cytotoxicity of PBMCs against MEC1 cells [1, 3] | Boost to the cytotoxicity of PBMCs against K562 cells ([2]; 100 nM) | Boost to the cytotoxicity of PBMCs against K562 cells ([2]; 1 μM) | Boost to the cytotoxicity of PBMCs against K562 cells [2, 3] | EC50 (NOD2) | NOD2 activity at 2 μM (fold increase) (NOD2; 18 h, mean ± SEM) | EC50 (NOD2; [4]) | Diminished activity by a factor, relative to 74 (NOD2; ratio of EC50 versus compound 74) | Improvement in potency over 32 (NOD2; ratio of EC50 versus compound 32)
CCCCCCCCCCCCCCCCCC(=O)Oc1ccc(/C=C/C(=O)NCC(=O)N[C@H](C(=O)N[C@H](CCC(=O)OCC)C(=O)OCC)C(C)C)cc1OC [Compound 75, Diethyl ((E)-3-(3-Methoxy-4-(stearoyloxy)phenyl)acryloyl)glycyl-L-valyl-D-glutamate] | no effects were seen against either cell line | significant boost | no effects were seen against either cell line | still significant | significant boost | 2830 nM | 2.37 ± 0.01 fold increase | 2830 ± 206 nM | 90 | 
CCCCCCCCCCCCCCCCCC(=O)Oc1ccc(/C=C/C(=O)NCC(=O)N[C@H](C(=O)N[C@H](CCC(=O)OCC)C(=O)OCC)[C@@H](C)O)cc1OC [Compound 81, Diethyl ((E)-3-(3-Methoxy-4-(stearoyloxy)phenyl)acryloyl)glycyl-L-threonyl-D-glutamate] |  | devoid of activity |  |  | devoid of activity | 1450 nM | 1.96 ± 0.01 fold increase | 1450 ± 150 nM |  | 10 fold

Reference: article PMC8279416, “Structural Fine-Tuning of Desmuramylpeptide NOD2 Agonists Defines Their In Vivo Adjuvant Activity” (Journal of Medicinal Chemistry, 2021)
